# Several values for one entry are separate records, joined by “and”; a condition that tells them apart may be missing. Identical values can stand only once. Counter-ions that a name gives are not always drawn.
# Molecular target: T1, recombinant human 5-HT4 receptor (Homo sapiens, UniProt Q13639)
# T1 construct: expressed in transfected cells
# Assay: Determination of EC50 values for 5-HT4 receptor (CHO cells, pCRE-Luc reporter)
# Type: cell-based
# Details: luciferase reporter, 4 hours incubation, read-out: 5-HT4 receptor agonistic binding in-vitro EC50
# Method: A stable CHO cell line expressing recombinant human 5-HT4 receptor and pCRE-Luc reporter system was used for cell-based assay. The assay offers a non-radioactive based approach to determine binding of a compound to GPCRs. In this specific assay, the level of intracellular cyclic AMP, which is modulated by activation, or inhibition of the receptor is measured. The recombinant cells harbor luciferase reporter gene under the control of cAMP response element.
# The above cells were grown in 96 well clear bottom white plates in Hams F12 medium containing 10% fetal bovine serum (FBS). Prior to the addition of compounds or standard agonist, cells were serum starved overnight. Increasing concentrations of test compounds were added in OptiMEM medium to the cells. The incubation was continued at 37° C. in CO2 incubator for 4 hours. Medium was removed and cells were washed with phosphate buffered saline. The cells were lysed and luciferase activity was measured in a Luminometer. Luminescence units were plotted against the compound concentrations using Graphpad software. EC50 values of the compounds were defined as the concentration required in stimulating the luciferase activity by 50%.
# T1 sequence (Q13639 whole entry): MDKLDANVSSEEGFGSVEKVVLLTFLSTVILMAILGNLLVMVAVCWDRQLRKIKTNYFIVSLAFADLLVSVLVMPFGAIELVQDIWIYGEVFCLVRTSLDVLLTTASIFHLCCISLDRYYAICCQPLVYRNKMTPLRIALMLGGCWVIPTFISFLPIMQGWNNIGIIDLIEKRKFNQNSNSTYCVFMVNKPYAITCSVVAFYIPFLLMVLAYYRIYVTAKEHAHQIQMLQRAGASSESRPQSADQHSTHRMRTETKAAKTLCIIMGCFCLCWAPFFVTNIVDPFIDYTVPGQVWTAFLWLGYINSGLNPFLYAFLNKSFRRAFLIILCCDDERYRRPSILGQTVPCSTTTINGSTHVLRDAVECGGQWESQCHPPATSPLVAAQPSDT
row,Structure (SMILES),EC50
1,"CC(C)(O)CN1CCC(CNC(=O)c2cc(Cl)c(N)c3c2OCCC3)CC1 [Example 40, 5-Amino-6-chloro-N-{[1-(2-hydroxy-2-methylpropyl)-4-piperidinyl]methyl}chroman-8-carboxamide]",≤ 1 nM
2,"COC(=O)N1CCC(N2CC3C(CNC(=O)c4cc(Cl)c(N)c5ccoc45)C3C2)CC1 (stereo not shown) [Example 17, 4-Amino-5-chloro-N-{[3-(1-methoxycarbonylpiperidine-4-yl)-3-azabicyclo[3.1.0]hex-6-yl]methyl}benzofuran-7-carboxamide oxalate]",5.1 to 10 nM
3,"CC(C)N1CC2C(CNC(=O)c3cc(Cl)c(N)c4c3OCC4)C2C1 (stereo not shown) [Example 20, 4-Amino-5-chloro-N-[(3-isopropyl-3-azabicyclo[3.1.0]hex-6-yl)methyl]-2,3-dihydrobenzofuran-7-carboxamide oxalate]",5.1 to 10 nM
4,"CC(C)(F)CN1CCC(CNC(=O)c2cc(Cl)c(N)c3c2OCCC3)CC1 [Example 55, 5-Amino-6-chloro-N-{[1-(2-fluoro-2-methylpropyl)-4-piperidinyl]methyl}chroman-8-carboxamide]",≤ 1 nM
5,"Nc1c(Cl)cc(C(=O)NCC2C3CN(CC4(O)CCOCC4)CC23)c2c1CCCO2 (stereo not drawn) [Example 30, 5-Amino-6-chloro-N-{[3-(4-hydroxytetrahydro-2H-pyran-4-ylmethyl)-3-azabicyclo[3.1.0]hex-6-yl]methyl}chroman-8-carboxamide L(+)-tartarate]",1.1 to 5 nM
6,"Nc1c(Cl)cc(C(=O)NCC2C3CN(C4CCOCC4)CC23)c2c1CCO2 (stereo not shown) [Example 28, 4-Amino-5-chloro-N-{[3-(tetrahydropyran-4-yl)-3-azabicyclo[3.1.0]hex-6-yl]methyl}-2,3-dihydrobenzofuran-7-carboxamide oxalate]",5.1 to 10 nM
7,"Nc1c(Cl)cc(C(=O)NCC2C3CN(C4CCOCC4)CC23)c2occc12 (stereo not shown) [Example 15, 4-Amino-5-chloro-N-{[3-(tetrahydro-2H-pyran-4-yl)-3-azabicyclo[3.1.0]hex-6-yl]methyl}benzofuran-7-carboxamide oxalate]",10.1 to 20 nM
8,"Nc1ccc(C(=O)NCC2C3CN(CC4CCOCC4)CC23)c2c1CCCO2 (stereo not drawn) [Example 7, 5-Amino-N-{[3-(tetrahydro-2H-pyran-4-ylmethyl)-3-azabicyclo[3.1.0]hex-6-yl]methyl}chroman-8-carboxamide L(+)-tartarate]",10.1 to 20 nM
9,"CC(C)(O)CN1CCC(F)(CNC(=O)c2cc(Cl)c(N)c3c2OCCC3)CC1 [Example 43, 5-Amino-6-chloro-N-{[4-fluoro-1-(2-hydroxy-2-methylpropyl)-4-piperidinyl]methyl}chroman-8-carboxamide]",1.1 to 5 nM
10,"Nc1c(Cl)cc(C(=O)NCC2C3CN(CC4(F)CCOCC4)CC23)c2c1CCCO2 (stereo not drawn) [Example 36, 5-Amino-6-chloro-N-{[3-(4-fluorotetrahydro-2H-pyran-4-ylmethyl)-3-azabicyclo[3.1.0]hex-6-yl]methyl}chroman-8-carboxamide L(+)-tartarate]",≤ 1 nM
11,"Nc1c(Cl)cc(C(=O)NCC2C3CN(C4CCOCC4)CC23)c2c1CCCO2 (stereo not drawn) [Example 6, 5-Amino-6-chloro-N-{[3-(tetrahydro-2H-pyran-4-yl)-3-azabicyclo[3.1.0]hex-6-yl]methyl}chroman-8-carboxamide L(+)-tartarate]",1.1 to 5 nM
12,"CC(C)(O)CN1CCC(CNC(=O)c2cc(Cl)c(N)c3ccoc23)CC1 [Example 49, 4-Amino-5-chloro-N-{[1-(2-hydroxy-2-methylpropyl)-4-piperidinyl]methyl}benzofuran-7-carboxamide L(+)-tartarate]",1.1 to 5 nM
13,"COC(=O)N1CCC(N2CC3C(CNC(=O)c4cc(Cl)c(N)c5c4OCC5)C3C2)CC1 (stereo not drawn) [Example 24, 4-Amino-5-chloro-N-{[3-(1-methoxycarbonylpiperidine-4-yl)-3-azabicyclo[3.1.0]hex-6-yl]methyl}-2,3-dihydrobenzofuran-7-carboxamide L(+)-tartarate]",5.1 to 10 nM
14,"CC(C)(CO)CN1CC2C(CNC(=O)c3cc(Cl)c(N)c4c3OCCC4)C2C1 (stereo not drawn) [Example 58, 5-Amino-6-chloro-N-{[3-(3-hydroxy-2,2-dimethylpropyl)-3-azabicyclo[3.1.0]hex-6-yl]methyl}chroman-8-carboxamide L(+)-tartarate]",≤ 1 nM
15,"Nc1c(Cl)cc(C(=O)NCC2C3CN(CC4CCOCC4)CC23)c2c1CCCO2 (stereo not shown) [Example 1, 5-Amino-6-chloro-N-{[3-(tetrahydro-2H-pyran-4-ylmethyl)-3-azabicyclo[3.1.0]hex-6-yl]methyl}chroman-8-carboxamide hydrochloride]",≤ 1 nM
16,"CC(C)(F)CN1CCC(F)(CNC(=O)c2cc(Cl)c(N)c3c2OCCC3)CC1 [Example 57, 5-Amino-6-chloro-N-{[1-(2-fluoro-2-methylpropyl)-4-fluoro-4-piperidinyl]methyl}chroman-8-carboxamide L(+)-tartarate]",5.1 to 10 nM
17,"Nc1c(Br)cc(C(=O)NCC2C3CN(C4CCOCC4)CC23)c2c1CCO2 (stereo not shown) [Example 29, 4-Amino-5-bromo-N-{[3-(tetrahydropyran-4-yl)-3-azabicyclo[3.1.0]hex-6-yl]methyl}-2,3-dihydrobenzofuran-7-carboxamide oxalate]",10.1 to 20 nM
18,"Nc1c(Cl)cc(C(=O)NCC2C3CN(CC4(O)CCOCC4)CC23)c2occc12 (stereo not shown) [Example 32, 4-Amino-5-chloro-N-{[3-(4-hydroxytetrahydro-2H-pyran-4-ylmethyl)-3-azabicyclo[3.1.0]hex-6-yl]methyl}benzofuran-7-carboxamide oxalate]",5.1 to 10 nM
19,"CC(C)(O)CN1CCC(F)(CNC(=O)c2cc(Cl)c(N)c3ccoc23)CC1 [Example 38, 4-Amino-5-chloro-N-{[4-fluoro-1-(2-hydroxy-2-methylpropyl)-4-piperidinyl]methyl}benzofuran-7-carboxamide]",5.1 to 10 nM
20,"Nc1c(Cl)cc(C(=O)NCC2C3CN(CC4CCOCC4)CC23)c2c1CCO2 (stereo not drawn) [Example 26, 4-Amino-5-chloro-N-{[3-(tetrahydropyran-4-ylmethyl)-3-azabicyclo[3.1.0]hex-6-yl]methyl}-2,3-dihydrobenzofuran-7-carboxamide L(+)-tartarate]",1.1 to 5 nM
21,"Nc1c(Cl)cc(C(=O)NCC2C3CN(CC4(O)CCOCC4)CC23)c2c1CCO2 (stereo not shown) [Example 35, 4-Amino-5-chloro-N-{[3-(4-hydroxytetrahydropyran-4-ylmethyl)-3-azabicyclo[3.1.0]hex-6-yl]methyl}-2,3-dihydrobenzofuran-7-carboxamide oxalate]",1.1 to 5 nM

# Second part, the molecule after the results:
row,EC50,Structure (SMILES)
1,1.1 to 5 nM,"COCCCN1CC2C(CNC(=O)c3cc(Cl)c(N)c4cc(C)oc34)C2C1 (stereo not shown) [Example 64, 4-Amino-5-chloro-2-methyl-N-{[3-(3-methoxypropyl)-3-azabicyclo[3.1.0]hex-6-yl]methyl}benzofuran-7-carboxamide hydrochloride]"
2,5.1 to 10 nM,"Cc1cc2c(N)c(Cl)cc(C(=O)NCC3C4CN(CC(C)(C)O)CC34)c2o1 (stereo not shown) [Example 54, 4-Amino-5-chloro-2-methyl-N-{[3-(2-hydroxy-2-methylpropyl)-3-azabicyclo[3.1.0]hex-6-yl]methyl}benzofuran-7-carboxamide]"
3,5.1 to 10 nM,"CC(C)(O)CN1CC2C(CNC(=O)c3cc(Cl)c(N)c4c3OCC4)C2C1 (stereo not shown) [Example 42, 4-Amino-5-chloro-N-{[3-(2-hydroxy-2-methylpropyl)-3-azabicyclo[3.1.0]hex-6-yl]methyl}-2,3-dihydrobenzofuran-7-carboxamide oxalate]"
4,5.1 to 10 nM,"Nc1c(Cl)cc(C(=O)NCC2C3CN(CC4CCOCC4)CC23)c2occc12 (stereo not shown) [Example 13, 4-Amino-5-chloro-N-{[3-(tetrahydro-2H-pyran-4-ylmethyl)-3-azabicyclo[3.1.0]hex-6-yl]methyl}benzofuran-7-carboxamide hydrochloride]"
5,1.1 to 5 nM,"COCCCN1CC2C(CNC(=O)c3cc(Cl)c(N)c4c3OCC4)C2C1 (stereo not shown) [Example 62, 4-Amino-5-chloro-N-{[3-(3-methoxypropyl)-3-azabicyclo[3.1.0]hex-6-yl]methyl}-2,3-dihydrobenzofuran-7-carboxamide oxalate]"
6,≤ 1 nM and 1.1 to 5 nM,"COCC(C)(C)CN1CC2C(CNC(=O)c3cc(Cl)c(N)c4c3OCCC4)C2C1 (stereo not shown) [Example 60, 5-Amino-6-chloro-N-{[3-(3-methoxy-2,2-dimethylpropyl)-3-azabicyclo[3.1.0]hex-6-yl]methyl}chroman-8-carboxamide]"
7,10.1 to 20 nM,"CC(C)(O)CN1CC2C(CNC(=O)c3cc(Cl)c(N)c4ccoc34)C2C1 (stereo not drawn) [Example 51, 4-Amino-5-chloro-N-{[3-(2-hydroxy-2-methylpropyl)-3-azabicyclo[3.1.0]hex-6-yl]methyl}benzofuran-7-carboxamide L(+)-tartarate]"
8,≤ 1 nM,"Cc1cc2c(N)c(Cl)cc(C(=O)NCC3CCN(CC(C)(C)O)CC3)c2o1 [Example 52, 4-Amino-5-chloro-2-methyl-N-{[1-(2-hydroxy-2-methylpropyl)-4-piperidinyl]methyl}benzofuran-7-carboxamide L(+)-tartarate]"
9,10.1 to 20 nM,"COCCCN1CC2C(CNC(=O)c3cc(Br)c(N)c4c3OCC4)C2C1 (stereo not shown) [Example 65, 4-Amino-5-bromo-N-{[3-(3-methoxypropyl)-3-azabicyclo[3.1.0]hex-6-yl]methyl}-2,3-dihydrobenzofuran-7-carboxamide oxalate]"
10,5.1 to 10 nM,"COCCCN1CC2C(CNC(=O)c3cc(Cl)c(N)c4ccoc34)C2C1 (stereo not shown) [Example 63, 4-Amino-5-chloro-N-{[3-(3-methoxypropyl)-3-azabicyclo[3.1.0]hex-6-yl]methyl}benzofuran-7-carboxamide hydrochloride]"

# From patent US9957257B2, “Amide compounds as 5-HT4 receptor agonists” (SUVEN LIFE SCIENCES LIMITED, priority 2015, dated 2018)
